# Laboratory results: US20110263569A1, “RYANODINE CHANNEL BINDERS AND USES THEREOF” (President and Fellows of Harvard College, priority 2007, published 2011)
# Target: T1, calstabin2 (FKBP12.6) binding to PKA-phosphorylated cardiac sarcoplasmic reticulum (CSR) (Homo sapiens, UniProt Q92736)
# T1 construct: from tissue
# Test: Calstabin 2 (FKBP12.6) Assay
# Conditions: 250 nM calstabin2, approximately 20 μg PKA-phosphorylated CSR, room temperature 30 minutes, immunoblot detection of calstabin2 binding
# Experimental: PKA-phosphorylated cardiac sarcoplasmic reticulum (CSR) (approximately 20 μg) is incubated with 250 nM calstabin2 (FKBP12.6) in 100 μl binding buffer (10 mM imidazole, 300 mM sucrose, pH 7.4) with a known concentration of the test compound. Calstabin2 is added as the last reagent in the reaction mixture. The binding is performed at room temperature for 30 minutes. After the binding reaction, the mixture is centrifuged for 10 minutes at 100,000 xg. The resulting pellet is washed 4 times in binding buffer. After each wash, the tubes are centrifuged at 100,000 xg for 10 minutes. After the final wash, the supernatant is aspirated off 20 μl of 2×SDS-PAGE loading buffer is added to each pellet, and the pellet is resuspended. The mixture is heated to 90° C. for 4 minutes, and the proteins are analysed by 15% SDS-PAGE. Calstabin2 binding was detected with an αFKBP (1:2000) primary antibody and an IR-labeled anti-rabbit IgG from LiCor Biosciences as the secondary antibody. The blot was developed with a LiCor Odyssey system.
# T1 sequence (Q92736 whole entry): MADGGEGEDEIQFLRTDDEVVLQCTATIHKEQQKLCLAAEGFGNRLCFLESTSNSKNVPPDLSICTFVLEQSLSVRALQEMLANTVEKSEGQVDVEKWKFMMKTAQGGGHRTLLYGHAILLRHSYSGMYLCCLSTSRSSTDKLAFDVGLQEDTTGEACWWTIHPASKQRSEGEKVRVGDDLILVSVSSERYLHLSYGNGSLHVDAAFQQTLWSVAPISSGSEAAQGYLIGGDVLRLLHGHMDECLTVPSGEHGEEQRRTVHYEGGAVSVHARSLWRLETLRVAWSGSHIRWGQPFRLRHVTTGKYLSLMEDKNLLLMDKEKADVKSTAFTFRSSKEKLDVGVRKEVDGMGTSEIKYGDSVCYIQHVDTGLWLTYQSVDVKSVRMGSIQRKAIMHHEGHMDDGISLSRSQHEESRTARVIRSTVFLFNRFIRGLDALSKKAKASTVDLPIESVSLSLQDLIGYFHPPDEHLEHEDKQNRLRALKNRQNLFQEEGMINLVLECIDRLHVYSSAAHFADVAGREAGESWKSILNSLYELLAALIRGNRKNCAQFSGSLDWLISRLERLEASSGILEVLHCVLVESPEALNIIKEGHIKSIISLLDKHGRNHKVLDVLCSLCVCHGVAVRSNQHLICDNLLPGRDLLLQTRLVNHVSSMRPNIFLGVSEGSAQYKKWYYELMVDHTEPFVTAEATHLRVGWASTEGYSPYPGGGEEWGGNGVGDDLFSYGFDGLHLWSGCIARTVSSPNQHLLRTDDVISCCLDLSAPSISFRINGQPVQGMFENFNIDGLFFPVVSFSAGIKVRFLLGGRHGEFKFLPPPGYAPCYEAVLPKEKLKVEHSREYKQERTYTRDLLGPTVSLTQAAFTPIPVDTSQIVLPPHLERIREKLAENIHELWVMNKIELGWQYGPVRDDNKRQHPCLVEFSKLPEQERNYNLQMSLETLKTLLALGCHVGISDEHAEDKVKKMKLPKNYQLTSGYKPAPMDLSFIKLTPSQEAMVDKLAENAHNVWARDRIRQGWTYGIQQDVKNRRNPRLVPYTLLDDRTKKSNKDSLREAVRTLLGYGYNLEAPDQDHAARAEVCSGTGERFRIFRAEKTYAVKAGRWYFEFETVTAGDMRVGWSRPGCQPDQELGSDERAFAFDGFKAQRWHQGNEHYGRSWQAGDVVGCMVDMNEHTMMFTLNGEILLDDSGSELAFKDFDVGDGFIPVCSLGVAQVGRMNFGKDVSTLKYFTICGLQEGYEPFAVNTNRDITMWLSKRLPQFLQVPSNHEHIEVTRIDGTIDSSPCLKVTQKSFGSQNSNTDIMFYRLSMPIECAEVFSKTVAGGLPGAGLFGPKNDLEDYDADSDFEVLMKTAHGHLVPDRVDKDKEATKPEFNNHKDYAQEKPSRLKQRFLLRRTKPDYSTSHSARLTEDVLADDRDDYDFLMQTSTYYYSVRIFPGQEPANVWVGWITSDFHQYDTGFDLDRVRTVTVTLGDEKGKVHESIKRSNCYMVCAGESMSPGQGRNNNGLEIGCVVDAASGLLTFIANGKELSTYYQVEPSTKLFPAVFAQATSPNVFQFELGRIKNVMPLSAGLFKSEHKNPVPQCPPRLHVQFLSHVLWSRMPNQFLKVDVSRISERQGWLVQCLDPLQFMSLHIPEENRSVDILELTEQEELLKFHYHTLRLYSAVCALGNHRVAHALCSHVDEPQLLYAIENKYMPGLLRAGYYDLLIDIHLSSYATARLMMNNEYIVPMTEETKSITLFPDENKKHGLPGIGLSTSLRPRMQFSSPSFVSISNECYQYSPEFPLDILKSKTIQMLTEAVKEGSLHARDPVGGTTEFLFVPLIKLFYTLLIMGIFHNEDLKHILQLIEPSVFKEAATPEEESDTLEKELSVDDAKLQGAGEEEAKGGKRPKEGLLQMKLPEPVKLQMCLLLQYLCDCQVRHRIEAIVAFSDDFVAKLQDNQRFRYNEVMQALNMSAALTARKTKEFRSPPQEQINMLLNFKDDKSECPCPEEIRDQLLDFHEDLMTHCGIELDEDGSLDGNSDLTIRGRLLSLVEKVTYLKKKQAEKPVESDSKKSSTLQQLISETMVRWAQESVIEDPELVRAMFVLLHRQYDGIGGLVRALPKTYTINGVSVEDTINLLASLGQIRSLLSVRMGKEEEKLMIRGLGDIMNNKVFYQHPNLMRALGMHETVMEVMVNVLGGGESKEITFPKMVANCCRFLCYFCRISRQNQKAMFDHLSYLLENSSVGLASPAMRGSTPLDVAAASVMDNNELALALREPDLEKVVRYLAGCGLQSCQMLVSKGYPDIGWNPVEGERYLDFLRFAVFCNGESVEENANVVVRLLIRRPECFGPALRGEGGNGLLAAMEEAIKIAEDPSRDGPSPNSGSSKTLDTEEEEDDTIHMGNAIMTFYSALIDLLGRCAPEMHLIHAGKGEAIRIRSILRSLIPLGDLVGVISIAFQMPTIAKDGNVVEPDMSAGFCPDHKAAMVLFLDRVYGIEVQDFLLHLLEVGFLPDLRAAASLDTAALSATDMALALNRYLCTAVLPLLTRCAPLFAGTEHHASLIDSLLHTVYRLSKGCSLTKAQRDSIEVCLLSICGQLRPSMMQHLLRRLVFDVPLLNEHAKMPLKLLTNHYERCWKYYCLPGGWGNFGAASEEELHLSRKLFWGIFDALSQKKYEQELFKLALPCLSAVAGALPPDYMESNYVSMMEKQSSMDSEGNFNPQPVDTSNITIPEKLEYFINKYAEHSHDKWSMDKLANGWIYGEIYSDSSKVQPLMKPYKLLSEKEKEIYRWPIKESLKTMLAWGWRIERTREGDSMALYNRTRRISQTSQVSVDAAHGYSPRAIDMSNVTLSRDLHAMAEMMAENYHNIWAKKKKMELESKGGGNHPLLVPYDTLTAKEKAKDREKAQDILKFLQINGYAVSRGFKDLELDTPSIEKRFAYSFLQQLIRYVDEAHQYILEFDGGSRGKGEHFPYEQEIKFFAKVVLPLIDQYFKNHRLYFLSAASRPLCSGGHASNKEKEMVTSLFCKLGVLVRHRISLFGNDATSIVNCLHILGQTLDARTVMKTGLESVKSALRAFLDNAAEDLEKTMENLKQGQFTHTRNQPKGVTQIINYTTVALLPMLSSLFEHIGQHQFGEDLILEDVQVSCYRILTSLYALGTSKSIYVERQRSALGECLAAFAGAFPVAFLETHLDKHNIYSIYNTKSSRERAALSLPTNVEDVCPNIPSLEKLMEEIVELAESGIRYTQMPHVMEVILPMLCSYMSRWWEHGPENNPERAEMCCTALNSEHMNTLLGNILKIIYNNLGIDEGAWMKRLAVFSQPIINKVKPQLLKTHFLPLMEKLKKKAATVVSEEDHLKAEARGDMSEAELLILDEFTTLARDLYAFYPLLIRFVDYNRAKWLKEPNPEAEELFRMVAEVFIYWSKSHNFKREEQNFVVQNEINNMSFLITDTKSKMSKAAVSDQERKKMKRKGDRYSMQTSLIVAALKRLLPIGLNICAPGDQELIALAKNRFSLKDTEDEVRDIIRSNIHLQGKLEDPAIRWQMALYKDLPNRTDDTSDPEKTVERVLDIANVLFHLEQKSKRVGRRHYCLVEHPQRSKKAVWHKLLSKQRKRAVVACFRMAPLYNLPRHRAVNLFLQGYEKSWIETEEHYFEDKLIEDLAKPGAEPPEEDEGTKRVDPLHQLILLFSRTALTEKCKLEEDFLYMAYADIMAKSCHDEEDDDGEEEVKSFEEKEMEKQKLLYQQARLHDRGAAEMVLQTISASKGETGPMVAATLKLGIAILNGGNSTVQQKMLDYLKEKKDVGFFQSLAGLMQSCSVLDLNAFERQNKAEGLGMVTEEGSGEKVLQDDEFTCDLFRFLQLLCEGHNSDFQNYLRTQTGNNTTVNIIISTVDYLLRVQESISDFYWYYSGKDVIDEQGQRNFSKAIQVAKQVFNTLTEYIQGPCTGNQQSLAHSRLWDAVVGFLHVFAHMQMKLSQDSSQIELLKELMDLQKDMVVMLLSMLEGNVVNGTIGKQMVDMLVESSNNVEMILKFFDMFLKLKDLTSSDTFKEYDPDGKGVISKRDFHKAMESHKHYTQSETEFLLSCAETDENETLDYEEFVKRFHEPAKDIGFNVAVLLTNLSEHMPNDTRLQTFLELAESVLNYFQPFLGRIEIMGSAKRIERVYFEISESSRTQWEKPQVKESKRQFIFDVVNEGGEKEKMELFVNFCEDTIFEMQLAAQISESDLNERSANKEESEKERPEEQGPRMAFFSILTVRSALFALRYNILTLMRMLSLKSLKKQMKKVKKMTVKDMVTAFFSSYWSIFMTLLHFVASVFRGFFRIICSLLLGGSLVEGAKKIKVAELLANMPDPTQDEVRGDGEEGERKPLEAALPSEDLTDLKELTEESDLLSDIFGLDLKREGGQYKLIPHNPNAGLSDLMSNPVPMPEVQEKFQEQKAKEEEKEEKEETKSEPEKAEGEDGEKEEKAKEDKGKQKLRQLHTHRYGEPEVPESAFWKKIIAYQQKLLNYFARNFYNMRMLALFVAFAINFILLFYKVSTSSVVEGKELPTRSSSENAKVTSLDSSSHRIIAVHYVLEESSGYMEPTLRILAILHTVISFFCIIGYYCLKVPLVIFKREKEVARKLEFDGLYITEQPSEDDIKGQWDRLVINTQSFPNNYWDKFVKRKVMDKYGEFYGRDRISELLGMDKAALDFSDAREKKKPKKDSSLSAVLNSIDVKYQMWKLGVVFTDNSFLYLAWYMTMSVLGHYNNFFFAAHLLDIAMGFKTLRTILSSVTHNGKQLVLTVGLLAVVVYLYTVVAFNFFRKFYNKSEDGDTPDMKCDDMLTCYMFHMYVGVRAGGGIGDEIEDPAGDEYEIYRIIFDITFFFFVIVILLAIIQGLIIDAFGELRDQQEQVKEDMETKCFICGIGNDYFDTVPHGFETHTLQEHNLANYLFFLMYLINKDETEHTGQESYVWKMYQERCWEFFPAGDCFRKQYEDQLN
# T1 sequence (P68106 whole entry partner): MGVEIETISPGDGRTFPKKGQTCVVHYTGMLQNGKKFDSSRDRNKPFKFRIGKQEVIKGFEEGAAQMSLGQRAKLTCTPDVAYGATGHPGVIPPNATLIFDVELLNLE
row,SMILES,Binding [nM]
1,COc1ccc2c(c1)CN(C(=O)CCN1CCC(Cc3ccccc3)CC1)C[C@@H](C)S2,100
2,COc1ccc2c(c1)CN(C(=O)CCN1CCC(Cc3ccccc3)CC1)[C@@H](C)[C@@H](C)S2,100
3,COc1ccc2c(c1)CN(C(=O)CCN1CCC(Cc3ccccc3)CC1)C[C@@H](C)O2,100
4,COc1ccc2c(c1)CN(C(=O)CCN1CCC(Cc3ccccc3)CC1)[C@H](C)[C@H](C)S2,1000
5,COc1ccc2c(c1)C/C(=C\CCN1CCC(Cc3ccccc3)CC1)CCS2,1000
6,COc1ccc2c(c1)C/C(=C/CCN1CCC(Cc3ccccc3)CC1)CCS2,100

# Second part, the molecule after the results:
row,Binding [nM],SMILES
1,100,COc1ccc2c(c1)CN(C(=O)CCN1CCC(Cc3ccccc3)CC1)C(C)CS2 (stereo not drawn)
2,100,COc1ccc2c(c1)CN(C(=O)CCN1CCC(Cc3ccccc3)CC1)C[C@H](C)O2
3,1000,COc1cccc(OC)c1CN(C)C(=O)CCN1CCC(Cc2ccccc2)CC1
